The source of these data is patent US5215916A, “Super glucocorticoid receptors: receptors with increased affinity and specificity for glucocorticoid steriods” (priority 1991, dated 1993).

Structures are written as SMILES. Where a name gives a salt, the structure may show the parent alone.

The test system of one test is glucocorticoid receptor. Conditions: Simons et al., 1987; cited from earlier work.
Test [1] relates to mouse glucocorticoid receptor. Conditions: L. I. Smith et al., 1988; cited from earlier work.
In test [2] the test system is any other steroid receptors. Conditions: cited from earlier work.
In another test the test system is glucocorticoid receptors. Conditions: cited from earlier work.
Test [3] has as its target T1, C656G mutant glucocorticoid receptor (Rattus norvegicus, UniProt P06536, C656G/D98G).
T1 sequence (P06536 1-795 D98G/C656G): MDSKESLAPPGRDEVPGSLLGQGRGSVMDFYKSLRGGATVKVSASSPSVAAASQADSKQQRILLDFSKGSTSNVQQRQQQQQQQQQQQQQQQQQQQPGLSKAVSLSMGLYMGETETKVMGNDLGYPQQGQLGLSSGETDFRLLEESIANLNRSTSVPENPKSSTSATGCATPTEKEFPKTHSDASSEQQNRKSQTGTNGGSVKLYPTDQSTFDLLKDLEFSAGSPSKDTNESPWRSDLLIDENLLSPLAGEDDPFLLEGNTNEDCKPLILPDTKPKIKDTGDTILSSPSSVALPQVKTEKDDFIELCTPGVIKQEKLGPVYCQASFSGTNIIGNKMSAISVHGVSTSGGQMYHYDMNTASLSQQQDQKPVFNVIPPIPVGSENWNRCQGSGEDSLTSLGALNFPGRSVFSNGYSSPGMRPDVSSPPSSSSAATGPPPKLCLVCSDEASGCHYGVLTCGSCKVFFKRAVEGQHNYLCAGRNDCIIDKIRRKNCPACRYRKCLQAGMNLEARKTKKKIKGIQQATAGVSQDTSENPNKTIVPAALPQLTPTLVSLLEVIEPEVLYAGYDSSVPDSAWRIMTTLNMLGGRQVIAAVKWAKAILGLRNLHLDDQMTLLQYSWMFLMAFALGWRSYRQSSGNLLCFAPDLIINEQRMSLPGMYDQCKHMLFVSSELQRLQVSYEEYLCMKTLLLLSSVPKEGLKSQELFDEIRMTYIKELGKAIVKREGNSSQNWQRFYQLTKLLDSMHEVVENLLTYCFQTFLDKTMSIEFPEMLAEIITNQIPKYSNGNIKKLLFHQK
The experiment in a line: Competition binding assay with [3H]Dex, COS-7 cytosol, C656G receptor. Further details: Thus the full length receptor was removed from the VARO vector with BamHI and inserted into the SVL vector; expressed in transfected cells; host or cells: COS-7 (cytosol). The method, then: Monolayer cultures of COS-7 cells were grown in DMEM (Gibco) supplemented with 5% fetal bovine serum (FBS) (Biofluids) at 37° C. in a 5% CO2 incubator. Standard calcium phosphate transfection methods were used to introduce the wild type and mutant receptor expression vectors (pSVL) into COS-7 cells (100 mm plates [Costar] at a cell density of about 10^6 /plate were each treated with 10 μg of plasmid DNA). After ~16 hrs of incubation at 37° C. in a 5% CO2 incubator, the excess calcium phosphate and precipitate were removed by washing with phosphate buffered saline (PBS). The cells were incubated at 37° C. for another ~48 hr in DMEM/ 5% FBS and harvested by trypsinization followed by centrifugation (for 10 min at 1570 ×g) and washing 3 times with PBS. The washed cells were stored at -80° C. until used.
COS-7 cell cytosol containing the steroid-free receptors was prepared by cell lysis at -80° C. and centrifugation at 15,000 ×g and labeled as described for HTC cells (S. S. Simons and P. A. Miller, Biochem 23:6876-6882 (1984)). Briefly, 30% cytosol solutions containing ~21 mM Na2 MoO4 were prepared with three parts COS-7 cell cytosol, 2 parts pH 9.5 TAPS buffer, and 5 parts pH 8.8 TAPS buffer. The total EtOH in each experiment was kept constant and at a level of ≤1%. […] After incubation for 2.5 hr, the [^3 H]Dex-Mes-labeled solutions were quick-frozen at -78° C. for subsequent SDS-polyacrylamide gel electrophoresis analysis. The specifically bound [^3 H]Dex was determined by first adding a 10% dextran-coated charcoal solution (added volume =20% of reaction solution volume) to remove free steroid and then subtracting the nonspecific binding seen in the presence of excess nonradioactive Dex.
Duplicate aliquots (72 μl) of COS-7 cell cytosol (33.5% in pH 8.8 TAPS/27 mM Na2 MoO4 buffer) were treated with 4 μl each of [^3 H]Dex (in pH 8.8 TAPS buffer) and various concentrations of non-radioactive competing steroid (in 20% EtOH in pH 8.8 TAPS buffer) (final concentration of [^3 H]Dex ≈3 ×10^-8 M). The average specific binding was determined after 2.5 or 24 hr of incubation as described above, expressed as percentage of the non-competed control and plotted versus the log10 of the concentration of the competing steroid.
The specificity of steroid binding was determined by Rodbard correction (Rodbard, 1973) of the data from a competition binding assay (S. S. Simons et al., Biochem. Biophys. Res. Comm. 86:793-800 (1979); Miller and Simons, 1988). The initial data were collected from 2.5 hr binding assays because of concerns about the stability of the receptors over longer times.

Test [4] addresses T1, C656G mutant glucocorticoid receptor. The settings on record: CV-1 cells, FIG. 1; C656G vs wild type.
Experimental: The biological activity of wild type (.quadrature.) or C656G mutant ( ) receptors was determined in CV-1 cells as described in the Example Section. The determined amounts of CAT activity from each plate were then plotted as a function of the concentration of dexamethasone added to each.
Subconfluent cultures of CV-1 cells were co-transfected, using the standard calcium phosphate procedure, with 0.2 μg VARO receptor expression vector (containing the mutant receptor driven by the SV40 enhancer and the α-globulin promoter) and 1 μg G46TCO reporter vector (CAT gene driven by the thymidine kinase promoter [to -109 bp] and a 46 bp synthetic GRE derived from the murine mammary tumor virus long terminal repeat) for each 60 mm dish. Cells were incubated overnight at 37° C. in a 5% CO2 incubator with the DNA precipitates, after which they were washed twice with PBS, and fresh medium (Dulbecco's modified Eagle's medium H-16 supplemented with 5% fetal calf serum) was added together with the indicated hormone.
After an additional 24 hr, at 37° C. in a 5% CO2 incubator, extracts were prepared by four freeze-thaw cycles (-75° C., 65° C.) and centrifuged for 5 min at 15,000 xg. Heat-treated extracts (5 min, 65° C.) were normalized for protein content and the amount of expressed CAT enzyme activity was determined by a non-chromatographic assay (M. J. Sleigh, Anal. Biochem. 156:251-256 (1986)).

Regarding `C[C@@H]1C[C@H]2[C@@H]3CCC4=CC(=O)C=C[C@]4(C)[C@@]3(F)[C@@H](O)C[C@]2(C)[C@@]1(O)C(=O)COS(C)(=O)=O` [Dex-Mes, dexamethasone mesylate], the “covalent labeling of receptor thiol by Dex-Mes” value with glucocorticoid receptor was “covalently label just one thiol in the receptor, i.e., cysteine 656”. In test [1], the “labeling of the identical cysteine in mouse receptor by Dex-Mes” value is on record as “also labeled”.
Regarding `O=[As][O-].[Na+]` [arsenite], the “effect on steroid binding activity of other steroid receptors” value in test [2] is reported as “not of any other steroid receptors”. In addition, in the test with glucocorticoid receptors, the “effect of preincubation of unbound receptors on steroid binding” value is listed as “eliminates all steroid binding” and the “effect on steroid binding activity of glucocorticoid receptors” value is reported as “blocks the steroid binding activity of glucocorticoid receptors”.
Consider `C[C@@H]1C[C@H]2[C@@H]3CCC4=CC(=O)C=C[C@]4(C)[C@@]3(F)[C@@H](O)C[C@]2(C)[C@@]1(O)C(=O)CO` [Dex, dexamethasone], for which, in test [3], the “greater preference of C656G than wild type receptor for glucocorticoids vs aldosterone and progesterone” value is listed as 10-19 fold. Besides, the “lower concentrations for Dex induction of CAT activity with C656G than with wild type receptor” value in test [4] is given as ~ 10 fold.
